The source of these data is US20130211371A1, “FORMULATIONS AND METHODS OF TREATMENT OF SKIN CONDITIONS” (Hy Biopharma, Inc., priority 2010, published 2013).

Marks after values point to notes of the source that are not given here.

One series deals with psoriasis lesions. Kind of series: Phase II study, topical hypericin and visible light, psoriasis arm. The format is in vivo, human. To be noted: All Ointment + Liquid, 6 weeks. The protocol: (§1) This study is designed to evaluate the safety and efficacy of topical hypericin in concentrations of 0.1% and 0.25% under occlusion for 24 hours followed by administration of visible light in doses ranging from 8 to 20 J/cm^2 twice weekly for 6 weeks for the treatment of psoriasis or MF. One of the four centers involved in the study administered topical hypericin in concentrations of 0.05 and 0.1%. The concentration of hypericin and the dose of light were based upon the Phase I study described above with normal volunteers.
A standardized topical amount of hypericin in either ointment or liquid formula was applied to defined plaques on the skin of volunteer subjects. The amount of hypericin in each topical application was as follows: 0.05%=0.005 mg/cm^2; 0.1%=0.01 mg/ cm^2, and 0.25%=0.025 mg/ cm^2.
Each hypericin treatment or placebo was applied twice weekly for a period of 24 hours prior to irradiation. Each application site was covered by non-absorbing Webril cotton of equal area and occluded with occlusive tape (Blenderm, 3M); excess drug was removed prior to irradiation (24 hours post drug application).
Irradiation was undertaken using visible fluorescent bulbs (590-650 nm) (GE cool white fluorescent bulbs, 20-watt fluorescent tubes housed in a reflecting bank) for a period not to exceed 15 minutes (total number of joules approximately 5/cm^2). The light dose was administered twice weekly, separated by at least one day.
The light dose was increased once weekly by 1 joule/cm^2 until symptoms or signs of phototoxicity appeared. At that point, the dose could either be maintained or reduced by 1 joule/cm^2 if phototoxicity was pronounced (skin erythema of greater than 1+[minimal visible erythema).
(§2) Skin reactions were evaluated each week immediately after irradiation and again at 48 and 72 hours later. The sites of irradiation were examined twice per week thereafter and all changes; e.g., erythema, edema, desquamation, pigmentation, etc, were recorded.
Lesion responses in this study were scored in accordance with the following scales at each patient evaluation:lesional CR=complete regression of the treated lesion; PR=>50% decrease in lesional area during treatment; Stable=<50% decrease in size or <25% increase in size during therapy; Progression=>25% increase in size during therapy. The success/failure criterion for each lesion on each patient was whether there was a 50% or better improvement in the lesion area at the end of the 6-week treatment cycle. If so, the patient was scored as a responder for that lesion. Table 1 indicates the rating criteria for patient response.
All patients receiving treatment for MF were treated with the ointment preparation. For patients with psoriasis, 5 patients were treated with 0.1% and 0.25% aqueous solutions of hypericin in dimethyl sulfoxide (DMSO) and 6 patients were treated with the USP
Hydrophilic Ointment preparations. The liquid dosage form consisted of dissolving either 0.2 mL or 0.5 mL hypericin stock solution (polyethylene glycol solution) in 44.8 or 44.5 mL of 50% DMSO/water and mixing with a magnetic stirrer.
The response or lack of response, of each lesion treated with either placebo ointment or with a hypericin-containing ointment was analyzed as a binomial (i.e., yes/no) distribution.
This was an appropriate analysis for response which was quantal in nature. For the null hypothesis (no treatment response) it was assumed that spontaneous resolution of the lesion by the protocol specified 6-week time point would not occur. That is, the true probability of spontaneous lesion regression (defined as <50% of its baseline size for CTCL and to <50% of its combined baseline score for psoriasis lesions) was taken as zero (0%). For the MF analysis, a repeated measures logistic regression was employed to obtain p-values. For analysis of the psoriasis data, a likelihood ratio chi-square test was employed.

Series [1] in a line: Phase II study, adverse events. The format is in vivo, human. On the procedure: as §2
Series [2] is described as follows: Phase I clinical trial, cutaneous phototoxicity of topical hypericin with visible light. It counts as in vivo, human.
The conditions of series [3]: cited from earlier work.
In a further series the test system is MF lesions. Kind of series: Phase II study, topical hypericin and visible light, MF arm. The format is in vivo, human. To be noted: 6 weeks. The protocol:
as §1
A standardized topical amount of hypericin in either ointment or liquid formula was applied to defined plaques on the skin of volunteer subjects. […]
as §2
Lesion responses in this study were scored in accordance with the following scales at each patient evaluation:lesional CR=complete regression of the treated lesion; PR=>50% decrease in lesional area during treatment; Stable=<50% decrease in size or <25% increase in size during therapy; Progression=>25% increase in size during therapy. […] If so, the patient was scored as a responder for that lesion. […]

Regarding `Cc1cc(O)c2c(=O)c3c(O)cc(O)c4c5c(O)cc(O)c6c(=O)c7c(O)cc(C)c8c1c2c(c34)c(c78)c65` [Hypericin, 4,5,7,4′,5′,7′ -dimethyl-meso naphthodiantbrone], in the series with psoriasis lesions (0.05%), the “Percent Responders, Response to 0.05% Dose (psoriasis)” value is given as 9.1% and the “Responders/Total, Response to 0.05% Dose (psoriasis)” value is listed as 1/11. In the series with psoriasis lesions (0.1%), the “Percent Responders, Hypericin 0.1% Dose (psoriasis)” value is reported as 36.4^a,b % and the “Responders/Total, Hypericin 0.1% Dose (psoriasis)” value is reported as 4/11. For the same molecule, the “Percent Responders, Hypericin 0.1% Dose (psoriasis)” value with psoriasis lesions (0.1%, listed as hypericin) is given as 36.4%. Also, in the series on psoriasis lesions (0.25%), the “Percent Responders, Hypericin 0.25% Dose (psoriasis)” value turned out to be 45.4%^b and the “Responders/Total, Hypericin 0.25% Dose (psoriasis)” value is listed as 5/11. In the series with psoriasis lesions (0.25%, listed as hypericin), the “Percent Responders, Hypericin 0.25% Dose (psoriasis)” value is 45.4%. Besides, in the series on psoriasis lesions (any dose), the “Percent Responders, All Hypericin Responders (psoriasis)” value was found to be 54.6%^b and the “Responders/Total, All Hypericin Responders (psoriasis)” value is 6/11. Besides, the “Deaths or serious adverse events / overall safety” value in series [1] (MF and psoriasis patients) was “No deaths or serious adverse events”. For the same molecule, the Reported adverse events result in series [1] (at the application site after visible light) is “mild to moderate burning, itching, erythema, and pruritus at the application site”. Besides, in series [2] (0.02% hypericin, any dose of light), the “Cutaneous reactions at 0.02%” value is recorded as “no cutaneous reactions”. The “Cutaneous photosensitivity at 0.1% and 0.5%” value in series [2] (topical under occlusion, visible light 24 hours after application) was “causes cutaneous photosensitivity”. In series [3] (in vivo), the half life is 20 to 24 h. Also, the “bioavailable following oral administration” value in series [3] (oral) was “about 20%”. In addition, the “Percent Responders, Hypericin 0.1% Dose (MF)” value in the series with MF lesions (ointment 0.1%) is listed as 41.7%. In the series on MF lesions (ointment 0.25%), the “Percent Responders, Hypericin 0.25% Dose (MF)” value was 55.6%.
